Consider 38 molecules from patent US20220340566A1, “BENZYL AMINE-CONTAINING 5,6-HETEROAROMATIC COMPOUNDS USEFUL AGAINST MYCOBACTERIAL INFECTION” (priority 2019, published 2022).

Series [1] concerns Mycobacterium avium ATCC700898. Kind of series: Determination of IC85 against M. avium (resazurin fluorescence). It is filed as cell-based. The following applies: 37° C., 3 days incubation then resazurin, fluorescence one day later.
Series [2] can be described thus: Metabolic stability test in pooled human liver microsomes. The following applies: human liver microsomes 0.5 mg protein/mL, 1 mmol/L NADPH, 37° C., 30 minutes. It is filed as in vitro ADME. On the procedure: Using a commercially available pooled human liver microsomes, a compound of the present invention was reacted for a constant time, a remaining rate was calculated by comparing a reacted sample and an unreacted sample, thereby, a degree of metabolism in liver was assessed.
A reaction was performed (oxidative reaction) at 37° C. for 0 minute or 30 minutes in the presence of 1 mmol/L NADPH in 0.2 mL of a buffer (50 mmol/L Tris-HCl pH 7.4, 150 mmol/L potassium chloride, 10 mmol/L magnesium chloride) containing 0.5 mg protein/mL of human liver microsomes. After the reaction, 50 μL of the reaction solution was added to 100 μL of a methanol/acetonitrile=1/1 (v/v), mixed and centrifuged at 3000 rpm for 15 minutes. The compound of the present invention in the supernatant was quantified by LC/MS/MS or solid phase extraction (SPE)/MS, and a remaining amount of the compound of the present invention after the reaction was calculated, letting a compound amount at 0 minute reaction time to be 100%.
In general terms: Liver microsomes are vesicles of endoplasmic reticulum, rich in cytochrome P450 enzymes.

[3] abbreviates: Mycobacterium avium, ATCC700898, M. avium ATCC700898, CAMHB medium, read-out: IC85.

SMILES strings stand for the structures. Like-named read-outs stand apart in the source and are kept apart here.

Turning to `COc1ccn2c(C(=O)NCc3ccc(N4CCN(c5ccc(OC(F)(F)F)cc5)[C@@H](C)C4)c(F)c3)c(C)nc2c1` [Compound I-2-2], the IC85 in series [1] (setting [3]) stood at 0.37 µM. The “MS_h_% (remaining amount of compound after reaction, 0 minute = 100%)” value in series [2] was 97.7%.
Consider `Cc1nc2ccc(Br)cn2c1C(=O)NCc1ccc(N2CCN(c3ccc(C(F)(F)F)cn3)CC2)c(F)c1` [Compound I-2-11], for which the IC85 in series [1] (setting [3]) was found to be 0.02 µM. In series [2], the “MS_h_% (remaining amount of compound after reaction, 0 minute = 100%)” value is listed as 71.7%.
With `CCc1nc2cc(F)ccn2c1C(=O)NCc1ccc(N2CCN(c3ccc(C(F)(F)F)cc3)[C@@H](C)C2)c(F)c1.Cl` [Compound I-1-112], the IC85 in series [1] (setting [3]) turned out to be 0.0014 µM. In series [2], the “MS_h_% (remaining amount of compound after reaction, 0 minute = 100%)” value was 69%.
The matching figures for `CCc1nc2ccc(Cl)cn2c1C(=O)NCc1ccc(N2CCN(c3ccc(OC(F)(F)F)cc3)C3(CCCC3)C2)c(F)c1` [Compound I-2-16]: 0.086 µM and 58.2%.
The matching figures for `COc1ccn2nc(C)c(C(=O)NCc3ccc(N4CCN(c5ccc(OC(F)(F)F)cc5)[C@H]5CCCC[C@@H]54)c(F)c3)c2c1` [Compound I-1-125]: 0.78 µM and 68%.
For `Cc1ccn2c(C(=O)NCc3ccc(C4CCN(c5ccc(OC(F)(F)F)cc5)CC4)cc3F)c(C)nc2c1` [Compound I-1-8], in that order: 0.58 µM and 86%.
As to `CCc1nc2cc(F)ccn2c1C(=O)NCc1ccc(N2CCN(c3ccc(C(F)(F)F)cn3)[C@@H](C)C2)c(F)c1.Cl` [Compound I-1-114], the IC85 in series [1] (M. avium ATCC700898, CAMHB medium) was 0.0074 µM. Also, in series [2], the “MS_h_% (remaining amount of compound after reaction, 0 minute = 100%)” value was determined as 87%.
Regarding `COc1ccn2nc(C)c(C(=O)NCc3ccc(N4CCC(c5ccc(OC(F)(F)F)cc5)CC4)c(F)c3)c2c1.Cl` [Compound I-1-123], the IC85 in series [1] (setting [3]) was determined as 0.014 µM. The “MS_h_% (remaining amount of compound after reaction, 0 minute = 100%)” value in series [2] worked out at 77%.
As for `CCc1nc2cc(F)ccn2c1C(=O)NCc1cc(F)c(N2CCC(c3ccc(OC(F)(F)F)cc3)CC2)c(F)c1.Cl` [Compound I-1-88], in series [1] (setting [3]), the IC85 is 0.0061 µM. For the same molecule, in series [2], the “MS_h_% (remaining amount of compound after reaction, 0 minute = 100%)” value came out at 89%.
The matching figures for `Cc1ccn2c(C(=O)NCc3ccc(N4CCN(c5ccc(OC(F)(F)F)cc5)[C@@H](C)C4)cc3)c(C)nc2c1` [Compound I-3-28]: 0.036 µM and 75.4%.
For the molecule `CCc1nc2cc(F)ccn2c1C(=O)NCc1ccc(C2CCN(c3ccc(C(C)(C)C)cc3)CC2)cc1F.Cl` [Compound I-1-149], the IC85 in series [1] (setting [3]) came out at 0.015 µM. The “MS_h_% (remaining amount of compound after reaction, 0 minute = 100%)” value in series [2] is given as 63%.
The matching figures for `CCc1nc2ccc(Cl)cn2c1C(=O)NCc1ccc(-c2ccc(OC(F)(F)F)cc2)c(F)c1` [Compound I-3-7]: 0.056 µM and 89.5%.
As for `CCCCOc1ccc(N2CCN(c3ccc(CNC(=O)c4c(CC)nc5ccc(Cl)cn45)c(F)c3)C[C@@H]2C)cc1.Cl` [Compound I-1-103], the IC85 in series [1] (setting [3]) was 0.019 µM. Also, the “MS_h_% (remaining amount of compound after reaction, 0 minute = 100%)” value in series [2] came to 64%.
For `Cc1nc2ccccn2c1C(=O)NCc1ccc(N2CCN(c3ccc(OC(F)(F)F)cc3)[C@@H](C)C2)c(F)c1.Cl` [Compound I-1-52], in that order: 0.0054 µM and 84%.
For `CCc1nc2ccc(Cl)cn2c1C(=O)NCc1cc(F)c(N2CCN(c3ccc(OC(F)(F)F)cc3)[C@@H](C)C2)c(F)c1.Cl` [Compound I-1-92], in that order: 0.0055 µM and 66%.
As for `CCOc1ccc(N2CCN(c3ccc(CNC(=O)c4c(CC)nc5ccc(Cl)cn45)cc3F)C[C@@H]2C)cc1OC.Cl` [Compound I-1-55], the IC85 in series [1] (setting [3]) is 0.69 µM. Also, in series [2], the “MS_h_% (remaining amount of compound after reaction, 0 minute = 100%)” value is recorded as 84%.
For `Cc1ccc2nc(Cl)c(C(=O)NCc3ccc(N4CCN(c5ccc(OC(F)(F)F)cc5)[C@@H](C)C4)c(F)c3)n2c1.Cl` [Compound I-1-57], in that order: 0.0036 µM and 84%.
On to `Cc1cn2c(C(=O)NCc3ccc(N4CCC(c5ccc(OC(F)(F)F)cc5)CC4)c(F)c3)c(C)nc2s1.Cl` [Compound I-3-6], for which the IC85 in series [1] (setting [3]) came to 0.26 µM. Moreover, the “MS_h_% (remaining amount of compound after reaction, 0 minute = 100%)” value in series [2] is given as 91.7%.
For `Cc1ccn2c(C(=O)NCc3ccc(C4CCN(c5cccc(OC(F)(F)F)c5)CC4)c(F)c3)c(C)nc2c1` [Compound I-1-19], in that order: 0.13 µM and 87%.
Take `Cc1cn2c(C(=O)NCc3ccc(N4CC=C(c5ccc(OC(F)(F)F)cc5)CC4)c(F)c3)c(C)nc2s1.Cl` [Compound I-3-12]: in series [1] (setting [3]), the IC85 stood at 0.34 µM. Further, the “MS_h_% (remaining amount of compound after reaction, 0 minute = 100%)” value in series [2] came to 84.4%.
Consider `Cc1nc2ccc(F)cn2c1C(=O)NCc1ccc(N2CCN(c3ccc(C(F)(F)F)cn3)CC2)c(C(F)(F)F)c1` [Compound I-2-5], for which the IC85 in series [1] (setting [3]) amounted to 0.42 µM. For the same molecule, in series [2], the “MS_h_% (remaining amount of compound after reaction, 0 minute = 100%)” value stood at 81.8%.
For `CCc1nc2cc(F)ccn2c1C(=O)NCc1ccc(N2CCN(c3ccc(OC(F)(F)F)cc3)[C@@H](CC)C2)c(F)c1.Cl` [Compound I-2-4], in that order: 0.0065 µM and 90.1%.
With `Cc1ccc2nc(C)c(C(=O)NCc3ccc(C4CCN(c5ccc(OC(F)(F)F)cc5)CC4)c(F)c3)n2c1` [Compound I-1-16], in series [1] (setting [3]), the IC85 amounted to 0.0016 µM. Also, the “MS_h_% (remaining amount of compound after reaction, 0 minute = 100%)” value in series [2] is 67%.
Regarding `Cc1ccn2c(C(=O)NCc3ccc(-c4ccc(OC(C)C)cc4)c(F)c3)c(C)nc2c1` [Compound I-3-9], the IC85 in series [1] (setting [3]) is 0.13 µM. The “MS_h_% (remaining amount of compound after reaction, 0 minute = 100%)” value in series [2] is recorded as 85.9%.
Consider `CCc1nc2cc(F)ccn2c1C(=O)NCc1ccc(C2CCN(c3ccc(OCC(F)(F)F)nc3)CC2)cc1F.Cl` [Compound I-1-146], for which, in series [1] (setting [3]), the IC85 is 0.026 µM. Besides, the “MS_h_% (remaining amount of compound after reaction, 0 minute = 100%)” value in series [2] was found to be 85%.
The matching figures for `COc1ccn2nc(C)c(C(=O)NCc3ccc(N4CCN(c5ccc(OC(F)(F)F)cc5)[C@@H](C)C4)cc3)c2c1` [Compound I-3-50]: 0.0058 µM and 58.5%.
For `CCc1nc2cc(F)ccn2c1C(=O)NCc1ccc(N2CCN(c3ccc(OCC(F)(F)F)cc3)[C@@H](C)C2)c(F)c1.Cl` [Compound I-1-115], in that order: 0.0046 µM and 69%.
For `Cc1ccn2c(C(=O)NCc3ccc(N4CCN(c5ccc(OC(F)(F)F)cc5)[C@@H](C)C4)c(F)c3)c(C)nc2c1` [Compound I-1-2], in that order: 0.021 µM and 86%.
Consider `CCc1nc2ccc(Cl)cn2c1C(=O)NCc1ccc(C2CCN(c3ccc(OCC(F)(F)F)nc3)CC2)cc1F.Cl` [Compound I-1-142], for which the IC85 in series [1] (setting [3]) is 0.03 µM. For the same molecule, the “MS_h_% (remaining amount of compound after reaction, 0 minute = 100%)” value in series [2] came to 71%.
On to `CCc1nc2ccc(Cl)cn2c1C(=O)NCc1ccc(OC2CCC(Oc3ccc(OC(F)(F)F)cc3)CC2)c(F)c1.Cl` (stereo not shown) [Compound I-3-20], for which the IC85 in series [1] (setting [3]) is 0.018 µM. Also, the “MS_h_% (remaining amount of compound after reaction, 0 minute = 100%)” value in series [2] was 80.8%.
The matching figures for `CC1=CN2C(=NC(C)C2C(=O)NCc2ccc3c(c2)OCCO3)C=C1` (stereo not shown) [Compound I-3-38]: 0.86 µM and 67.7%.
Turning to `Cc1cn2c(C(=O)NCc3ccc(N4CC5(CCN(c6ccc(C(F)(F)F)cc6)CC5)C4)c(F)c3)c(C)nc2s1` [Compound I-3-43], in series [1] (setting [3]), the IC85 was 0.15 µM. For the same molecule, the “MS_h_% (remaining amount of compound after reaction, 0 minute = 100%)” value in series [2] worked out at 64.1%.
Regarding `Cc1ccc2nc(C)c(C(=O)NCc3ccc(S(F)(F)(F)(F)F)cc3)n2c1` [Compound I-3-44], in series [1] (setting [3]), the IC85 was determined as 0.11 µM. Also, the “MS_h_% (remaining amount of compound after reaction, 0 minute = 100%)” value in series [2] is 63.9%.
As for `CCc1nc2ccc(Cl)cn2c1C(=O)NCc1ccc(C2CCN(c3ccc(OC(F)(F)F)cc3)CC2)c(F)c1` [Compound I-1-20], the IC85 in series [1] (setting [3]) was 0.033 µM. Also, in series [2], the “MS_h_% (remaining amount of compound after reaction, 0 minute = 100%)” value worked out at 83%.
On to `Cc1ccn2c(C(=O)NCc3ccc(N4CCN(c5ccc(C(F)(F)F)cn5)CC4)c(C(F)(F)F)c3)c(C)nc2c1` [Compound I-2-13], for which the IC85 in series [1] (setting [3]) was 0.35 µM. In addition, the “MS_h_% (remaining amount of compound after reaction, 0 minute = 100%)” value in series [2] was 67.6%.
On to `CCCC[C@H]1CN(c2ccc(CNC(=O)c3c(CC)nc4cc(F)ccn34)cc2F)CCN1c1ccc(OC(F)(F)F)cc1.Cl` [Compound I-2-6], for which, in series [1] (setting [3]), the IC85 worked out at 0.0044 µM. In series [2], the “MS_h_% (remaining amount of compound after reaction, 0 minute = 100%)” value was 80.8%.
As to `CCc1nc2ccc(Cl)cn2c1C(=O)NCc1ccc(N2CCN(c3ccc(OC(F)(F)F)cc3)[C@@H](CC)C2)c(F)c1` [Compound I-1-42], the IC85 in series [1] (setting [3]) amounted to 0.009 µM. For the same molecule, the “MS_h_% (remaining amount of compound after reaction, 0 minute = 100%)” value in series [2] is given as 59%.
On to `Cc1cn2c(C(=O)NCc3ccc(-c4ccc(OCC(F)(F)F)cc4)c(F)c3)c(C)nc2s1` [Compound I-3-30], for which, in series [1] (setting [3]), the IC85 was found to be 0.031 µM. In addition, the “MS_h_% (remaining amount of compound after reaction, 0 minute = 100%)” value in series [2] worked out at 75.1%.
